Consider 1 molecule from ChEMBL document CHEMBL5346971, “Discovery of the First Irreversible HDAC6 Isoform Selective Inhibitor with Potent Anti-Multiple Myeloma Activity” (J Med Chem, 2023).

SMILES strings stand for the structures. Activity calls are given as the source filed them. The calls are words filed in the database; no cut-off is given here.

In one data set the test system is MM1.S. The experiment in a line: Antiproliferative activity against human MM1.S cells assessed as inhibition of cell proliferation incubated for 48 hrs by CCK8 assay. Type of data set: functional, cell-based.
Data set [1] has as its system RPMI-8226. The experiment in a line: Induction of cell cycle arrest in human RPMI-8226 cells assessed as proportion of cells at G2/M phase at 2.5 uM incubated for 24 hrs by PI staining based flow cytometry (reference value: 19.8%). Type of data set: functional. For orientation: Flow cytometry measures light scatter and fluorescence of single cells or particles in a stream.

The nature of data set [2]: Toxicity in NCG mouse xenografted with human RPMI-8226 cells assessed as body weight loss at 50 ug administered intratumorally every 2 days. Conditions: in vivo, other, 48 h, route it(Intratumoral), dose 50 µg. In general terms: Xenograft models place foreign cells or tissue in a host animal.
Data set [3] deals with RPMI-8226. The data set can be described thus: Induction of apoptosis in human RPMI-8226 cells assessed as proportion of viable cells at 2.5 uM incubated for 24 hrs by AnnexinV-FITC/PI staining based flow cytometry (reference value: 84.71%). The data set is classed as functional, cell-based.
Data set [4] has as its system RPMI-8226. The experiment in a line: Induction of apoptosis in human RPMI-8226 cells assessed as proportion of early apoptotic cells at 2.5 uM incubated for 24 hrs by AnnexinV-FITC/PI staining based flow cytometry (reference value: 10.63%). Type of data set: functional, cell-based.
Data set [5] has as its system RPMI-8226. The experiment in a line: Induction of cell cycle arrest in human RPMI-8226 cells assessed as proportion of cells at G1 phase at 2.5 uM incubated for 24 hrs by PI staining based flow cytometry (reference value: 33.5%). The data set is classed as functional.
Data set [6] concerns RPMI-8226. The experiment in a line: Antitumor activity against human RPMI-8226 cells xenografted in NCG mouse assessed as T/C ratio at 50 ug administered intratumorally every 2 days by vernier caliper analysis. Type of data set: functional. The note with it: dose 50 µg; route it(Intratumoral).
Data set [7] relates to RPMI-8226. The data set can be described thus: Antitumor activity against human RPMI-8226 cells xenografted in NCG mouse assessed as tumor growth inhibition at 50 ug administered intratumorally every 2 days by vernier caliper analysis. Type of data set: functional. Conditions: dose 50 µg; route it(Intratumoral).
Data set [8] in a line: Toxicity in NCG mouse xenografted with human RPMI-8226 cells assessed as weakness at 50 ug administered intratumorally every 2 days. Conditions: in vivo, other, 48 h, route it(Intratumoral), dose 50 µg.
Data set [9] concerns RPMI-8226. The experiment in a line: Induction of apoptosis in human RPMI-8226 cells assessed as proportion of necrotic cells at 2.5 uM incubated for 24 hrs by AnnexinV-FITC/PI staining based flow cytometry (reference value: 0.49%). The data set is classed as functional, cell-based.
Data set [10] can be described thus: Cytotoxicity against human L02 cells assessed as inhibition of cell proliferation incubated for 48 hrs by CCK8 assay. Type of data set: toxicity, cell-based. On the technique in general: Tetrazolium dyes change colour on reduction, which living cells bring about.
The nature of data set [11]: Toxicity in NCG mouse xenografted with human RPMI-8226 cells assessed as animal's death at 50 ug administered intratumorally every 2 days. The note with it: in vivo, other, 48 h, route it(Intratumoral), dose 50 µg.
For data set [12], the system named is RPMI-8226. The data set can be described thus: Induction of apoptosis in human RPMI-8226 cells assessed as proportion of late apoptotic cells at 0.5 uM incubated for 24 hrs by AnnexinV-FITC/PI staining based flow cytometry (reference value: 4.18%). The data set is classed as functional, cell-based.
Data set [13] concerns RPMI-8226. The data set can be described thus: Induction of apoptosis in human RPMI-8226 cells assessed as proportion of late apoptotic cells at 2.5 uM incubated for 24 hrs by AnnexinV-FITC/PI staining based flow cytometry (reference value: 4.18%). Type of data set: functional, cell-based.
Data set [14] has as its system RPMI-8226. The data set can be described thus: Induction of apoptosis in human RPMI-8226 cells assessed as proportion of necrotic cells at 0.5 uM incubated for 24 hrs by AnnexinV-FITC/PI staining based flow cytometry (reference value: 0.49%). Type of data set: functional, cell-based.
The test system of data set [15] is RPMI-8226. The experiment in a line: Induction of apoptosis in human RPMI-8226 cells assessed as proportion of viable cells at 0.5 uM incubated for 24 hrs by AnnexinV-FITC/PI staining based flow cytometry (reference value: 84.71%). The data set is classed as functional, cell-based.
Another data set deals with U-266. The data set can be described thus: Antiproliferative activity against human U-266 cells assessed as inhibition of cell proliferation incubated for 48 hrs by CCK8 assay. Type of data set: functional, cell-based. Conditions: U-266, 48 h.
For data set [16], the system named is RPMI-8226. The experiment in a line: Induction of apoptosis in human RPMI-8226 cells assessed as proportion of early apoptotic cells at 0.5 uM incubated for 24 hrs by AnnexinV-FITC/PI staining based flow cytometry (reference value: 10.63%). The data set is classed as functional, cell-based.
Data set [17] has as its system RPMI-8226. The experiment in a line: Induction of cell cycle arrest in human RPMI-8226 cells assessed as proportion of cells at S phase at 2.5 uM incubated for 24 hrs by PI staining based flow cytometry (reference value: 46.7%). Type of data set: functional.
For data set [18], the system named is RPMI-8226. The data set can be described thus: Antiproliferative activity against human RPMI-8226 cells assessed as inhibition of cell proliferation incubated for 48 hrs by CCK8 assay. Type of data set: functional, cell-based. Conditions: RPMI-8226, 48 h.

As a reminder, the IC50 is the concentration that gives 50% inhibition. Usually T/C stands for the ratio of treated to control. Broadly, the TGI is how far tumour growth fell short of that in controls. With `O=C(CCCCCCNC(=O)c1cnc(N(c2ccccc2)c2ccccc2Cl)nc1)NO` [CITARINOSTAT], the values for the IC50 with MM1.S, in the data set on U-266 and in the data set with RPMI-8226 [18] were 2 µM, 4.3 µM and 3.5 µM, respectively. Also, the Activity in the data set with RPMI-8226 [1] is 22.6%; in data set [2], “Non-Toxic”; in the data set on RPMI-8226 [5], 32.7%; in data set [8] it was “Toxic”; in [11], “Toxic”; with RPMI-8226 [17], 44.7%. The outcome in the data set on RPMI-8226 [3], with RPMI-8226 [4], in the data set with RPMI-8226 [9], with RPMI-8226 [12], with RPMI-8226 [13] and with RPMI-8226 [14] was Active. For the same molecule, the outcome in the data set on RPMI-8226 [15] and in the data set with RPMI-8226 [16] was Active. In addition, the T/C with RPMI-8226 [6] was 61%. Besides, the TGI with RPMI-8226 [7] is 46%. For the same molecule, the IC50 at 48 h in data set [10] amounted to 15.2 µM.
